Numbered stars: 1 amine (or outer) side, 2 acyl side, 3 side chain; on linkers, the order of the positions; unused ones are H or OH. Square brackets hold non-standard residues; d marks the D form. Side chains are listed from the residue outwards. Peptide text beside a SMILES is read from it. * marks the point of attachment. γGlu = O=C(O)[C@H](CCC(=O)[*:2])N[*:1]; Palmitoyl = CCCCCCCCCCCCCCCC(=O)*; AEEA = NCCOCCOCC(=O)O; Aib = CC(C)(N)C(=O)O
How the values were obtained:
Format in all cases: physicochemical
[1] = Chemical stability assessment, UPLC-UV purity loss in buffer system A; settings: 1 mg/ml, 25 mM acetate buffer pH 4.5 with m-cresol
Procedure: Prior to the chemical stability measurement of a peptide batch, its purity was determined through UPLC/MS. For stability testing the target concentration was 1 mg pure compound/ml. Therefore solutions from solid samples were prepared in a buffer system with a concentration of 1 mg/mL compound based on the previously determined % purity:
Chemical stability buffer system A) 25 mM acetate buffer pH 4.5, 3 mg/mL L-Methionine, 2.7 mg/mL m-cresol, 18 mg/mL Glycerol 85% Chemical stability buffer system B) 25 mM phosphate buffer pH 6.0, 3 mg/mL L-Methionine, 2.7 mg/mL m-cresol, 18 mg/mL Glycerol 85%
Peptide solutions were filtered through […] pore size and filled into aliquots under aseptic conditions. At starting point, UPLC-UV was performed by injection of 2 μl of the undiluted sample.
For chemical stability testing, aliquots were stored for 28 days at 5 and 40° C. After this time course the samples were centrifuged for 15 min at 2500 RCF. Then 2 μl of the undiluted supernatant were analysed with UPLC-UV.
The chemical stability was rated through the relative loss of purity calculated by the equation: [(purity at starting point)−(purity after 28 days at X° C.)]/(purity at starting point)]*100%
The purity is calculated as
[(peak area peptide)/(total peak area)]*100%
Peptide samples were prepared in Chemical stability buffer system A and the stability was assessed as described in Methods.

[2] = Thioflavin T (ThT) assay for physical stability (fibrillation); settings: 3 mg/ml, 100 mM acetate pH 4.5 with m-cresol, 37° C. shaking
Excerpt: Low physical stability of a peptide solution may lead to amyloid fibril formation, which is observed as well-ordered, thread-like macromolecular structures in the sample, which eventually may lead to gel formation. Thioflavin T (ThT) is widely used to visualize and quantify the presence of misfolded protein aggregates. [Biancalana et al. (2010) Biochimica et Biophysica Acta. 1804 (7): 1405-1412]. […] Enzymol. 309, 274-284]. The time course for fibril formation often follows the characteristic shape of a sigmoidal curve and can be separated into three regions: a lag phase, a fast growth phase, and a plateau phase.
The typical fibril formation process starts with the lag phase in which the amount of partially folded peptide turned into fibrils is not significant enough to be detected. The lag-time corresponds to the time the critical mass of the nucleus is built. Afterwards, a drastic elongation phase follows and fibril concentration increases rapidly.
Investigations were carried out to determine fibrillation tendencies under stress conditions by shaking at 37° C. within Fluoroskan Ascent FL.
For the tests in Fluoroskan Ascent FL, 200 μL sample were placed into a 96 well mictrotiter plate PS, flat bottom, Greiner Fluotrac No. 655076. Plates were sealed with Scotch Tape (Quiagen). Samples were stressed by continuous cycles of 10 s shaking at 960 rpm and 50 s rest period at 37° C. The kinetic was monitored by measuring fluorescence intensity every 20 minutes.
Peptides were diluted in a buffer system to a final concentration of 3 mg/ml. 20 μL of a 10.1 mM ThT solution in H2O were added to 2 mL of peptide solution to receive a final concentration of 100 μM ThT. For each sample eight replicates were tested.
Tht buffer system A) 100 mM Acetate pH 4.5 including m-cresol (100 mM Natriumacetat trihydrat, pH adjustment using 2N CH3COOH, 2.7 mg/mL m-cresol) Tht buffer system B) 100 mM citrate buffer pH 6.0
Lag time in hours in Thioflavin T (ThT) assay of peptide samples was determined in ThT buffer system A as described in Methods.

[3] = Dynamic light scattering, hydrodynamic radius as surrogate for DLS interaction parameter kD; settings: for Delta Rh [nm] = Rh5 − Rh1: DLS buffer system A pH 4.5; for Rh1 [nm] c = 1 mg/ml / Rh5 [nm] c = 5 mg/ml: hydrodynamic radius, DLS buffer system A pH 4.5, method C, 25° C.
Excerpt: A monochromatic and coherent light beam (laser) is used to illuminate the liquid sample. Dynamic Light Scattering (DLS) measures light scattered from particles (1 nm≤radius≤1 μm) that undergo Brownian motion. This motion is induced by collisions between the particles and solvent molecules that themselves are moving due to their thermal energy. The diffusional motion of the particles results in temporal fluctuations of the scattered light [Pecora, R. Dynamic Light Scattering: Applications of Photon Correlation Spectroscopy, Plenum Press, 1985].
The scattered light intensity fluctuations are recorded and transformed into an autocorrelation function. By fitting the autocorrelation curve to an exponential function, the diffusion coefficient D of the particles in solution can be derived. The diffusion coefficient is then used to calculate the hydrodynamic radius Rh (or apparent Stokes radius) through the Stokes-Einstein equation assuming spherical particles. This calculation is defined in ISO 13321 and ISO 22412 [International Standard ISO13321 Methods for Determination of Particle Size Distribution Part 8: Photon Correlation Spectroscopy, International Organisation for Standardisation (ISO) 1996; International Standard ISO22412 Particle Size Analysis—Dynamic Light Scattering, International Organisation for Standardisation (ISO) 2008].
For every peptide solution, the hydrodynamic radius Rh and the diffusion constant D (related via the Stokes-Einstein equation) were determined as an average over triplicates. Both parameters were determined at different peptide concentrations (e.g., Rh1 and D1: 1 mg/ml and Rh5 and D5: 5 mg/ml) in the same buffer system. The difference of these parameters between low and high peptide concentration is a surrogate for the DLS interaction parameter kD. Rh5<Rh1 or D5>D1 correspond to kD>0 and therefore to repulsive inter-particle interactions that result in improved physical (or colloidal) stability.
DLS buffer system A) 25 mM acetate buffer pH 4.5, 3 mg/mL L-Methionine, 2.7 mg/mL m-cresol, 18 mg/mL Glycerol 85%
DLS Method C: DLS measurements were performed on a DynaPro Plate Reader II (Wyatt Technology, Santa Barbara, Calif., US) and using one of the following black, low volume, and non-treated plates: polystyrene 384 assay plate with clear bottom (Corning, N.Y., US), polystyrene 96 assay plate with clear bottom (Corning, N.Y., US), cyclo olefin polymer (COP) 384 assay plate with clear bottom (Aurora, Mont., US), or polystyrene 384 assay plate with clear bottom (Greiner Bio-One, Germany). The data were processed with the Dynamics software provided by Wyatt Technology. Parameters of the particle size distribution were determined with non-negatively constrained least squares (NNLS) methods using DynaLS algorithms. Measurements were taken at 25° C. with an 830 nm laser light source at an angle of 158°.
The hydrodynamic radius Rh of peptide samples was determined at different peptide concentrations (1 mg/ml and 5 mg/ml) in DLS buffer system A using DLS method C as described in Methods as surrogate for the DLS interaction parameter kD.

Chemical stability [relative purity loss 28 days 40° C.] (%) at pH 4.5 [1]	Lag time before increase [2]	Delta Rh [nm] = Rh5 − Rh1 [3]	Rh1 [nm] c = 1 mg/ml [3]	Rh5 [nm] c = 5 mg/ml [3]	SMILES
8.1%	>45 h	−0.1 nm	3.0 nm	2.9 nm	CCCCCCCCCCCCCCCC(=O)NCCOCCOCC(=O)N[C@@H](CCC(=O)N[C@@H](CCC(=O)NCCCC[C@H](NC(=O)[C@H](CC(C)C)NC(=O)[C@H](CCCCN)NC(=O)[C@H](CO)NC(=O)[C@H](CC(C)C)NC(=O)[C@H](CC(=O)O)NC(=O)[C@H](CO)NC(=O)[C@@H](NC(=O)[C@H](Cc1ccccc1)NC(=O)[C@@H](NC(=O)CNC(=O)[C@H](Cc1c[nH]cn1)NC(=O)C(C)(C)NC(=O)[C@@H](N)Cc1c[nH]cn1)[C@@H](C)O)[C@@H](C)O)C(=O)N[C@@H](CCC(=O)O)C(=O)N[C@@H](CCC(=O)O)C(=O)N[C@@H](CCC(N)=O)C(=O)N[C@@H](CCCNC(=N)N)C(=O)N[C@@H](CCC(N)=O)C(=O)N[C@@H](CCCCN)C(=O)N[C@@H](CCC(=O)O)C(=O)N[C@@H](Cc1ccccc1)C(=O)N[C@H](C(=O)N[C@@H](CCC(=O)O)C(=O)N[C@@H](Cc1c[nH]c2ccccc12)C(=O)N[C@@H](CC(C)C)C(=O)N[C@@H](CCCCN)C(=O)N[C@@H](C)C(=O)NCC(=O)NCC(=O)N[C@@H](Cc1c[nH]cn1)C(=O)N1CCC[C@H]1C(=O)N[C@@H](CO)C(=O)NC(C)(C)C(=O)N[C@@H](CCCCN)C(=O)N1CCC[C@H]1C(=O)N1CCC[C@H]1C(=O)N1CCC[C@H]1C(=O)N[C@@H](CCCCN)C(N)=O)[C@@H](C)CC)C(=O)O)C(=O)O [SEQ ID NO: 14, H-Aib-H-G-T-F-T-S-D-L-S-K-L-K[gGlu-gGlu-AEEA-Palm]-E-E-Q-R-Q-K-E-F-I-E-W-L-K-A-G-G-H-P-S-Aib-K-P-P-P-K-NH2] (H-H[Aib]HGTFTSDLSKLK([γGlu-γGlu-AEEA-Palmitoyl])EEQRQKEFIEWLKAGGHPS[Aib]KPPPK-NH2)
7.2%	>45 h	−0.4 nm	3.0 nm	2.6 nm	CCCCCCCCCCCCCCCC(=O)NCCOCCOCC(=O)N[C@@H](CCC(=O)N[C@@H](CCC(=O)NCCCC[C@H](NC(=O)[C@H](CC(C)C)NC(=O)[C@H](CCCCN)NC(=O)[C@H](CO)NC(=O)[C@H](CC(C)C)NC(=O)[C@H](CC(=O)O)NC(=O)[C@H](CO)NC(=O)[C@@H](NC(=O)[C@H](Cc1ccccc1)NC(=O)[C@@H](NC(=O)CNC(=O)[C@H](Cc1c[nH]cn1)NC(=O)C(C)(C)NC(=O)[C@@H](N)Cc1c[nH]cn1)[C@@H](C)O)[C@@H](C)O)C(=O)N[C@@H](CCC(=O)O)C(=O)N[C@@H](CCC(=O)O)C(=O)N[C@@H](CCC(N)=O)C(=O)N[C@@H](CCCNC(=N)N)C(=O)N[C@@H](CCC(N)=O)C(=O)N[C@@H](CCCCN)C(=O)N[C@@H](CCC(=O)O)C(=O)N[C@@H](Cc1ccccc1)C(=O)N[C@H](C(=O)N[C@@H](CCC(=O)O)C(=O)N[C@@H](Cc1c[nH]c2ccccc12)C(=O)N[C@@H](CC(C)C)C(=O)N[C@@H](CCCCN)C(=O)N[C@@H](C)C(=O)N[C@H](C)C(=O)NCC(=O)N[C@@H](Cc1c[nH]cn1)C(=O)N1CCC[C@H]1C(=O)N[C@@H](CO)C(=O)NC(C)(C)C(=O)N[C@@H](CCCCN)C(=O)N1CCC[C@H]1C(=O)N1CCC[C@H]1C(=O)N1CCC[C@H]1C(=O)N[C@@H](CCCCN)C(N)=O)[C@@H](C)CC)C(=O)O)C(=O)O [SEQ ID NO: 15, H-Aib-H-G-T-F-T-S-D-L-S-K-L-K[gGlu-gGlu-AEEA-Palm]-E-E-Q-R-Q-K-E-F-1-E-W-L-K-A-dAla-G-H-P-S-Aib-K-P-P-P-K-NH2] (H-H[Aib]HGTFTSDLSKLK([γGlu-γGlu-AEEA-Palmitoyl])EEQRQKEFIEWLKA[dA]GHPS[Aib]KPPPK-NH2)

From patent US10538567B2, “Compounds as peptidic trigonal GLP1/glucagon/GIP receptor agonists” (priority 2016, dated 2020)
